# Source: patent publication US20130131161A1, “METHODS AND COMPOSITIONS FOR CARDIOVASCULAR DISEASES AND CONDITIONS” (priority 2009, published 2013)
# Several values for one entry are separate records, joined by “and”; a condition that tells them apart may be missing. Equal values may be shown once.
# Tested on: Human umbilical vein endothelial cells (HUVECs)
# Test: eNOS activity analysis: NO, ONOO− and NO/ONOO− release from HUVECs of 50 genotyped donors in response to LA-419 (Example 2)
# Type: cell-based
# Experimental: Concurrent measurements of NO and ONOO^− were carried out with tandem electrochemical nanosensors combined into one working unit with a total diameter of 200-500 nm (FIG. 1). Their design was based on previously developed and well-characterized chemically modified carbon-fiber technology (Malinski and Taha, 1992; Lvovich and Scheeline, 1997). Each of the nanosensors was made by depositing a sensing material on the tip of a carbon fiber (length 4-5 μm, diameter 0.2-0.5 μm). The fibers were sealed with nonconductive epoxy and electrically connected to copper wires with conductive silver epoxy. A conductive film of polymeric nickel (II) tetrakis(3-methoxy-4-hydroxyphenyl)porphyrin for the NO-sensor and polymeric film of Mn (III) [2.2]paracyclophanylporphyrin was used for the ONOO^−-sensor.
# A module of NO/ONOO^− nanosensors (diameter 1-2 μm) with a platinum wire (0.1 mm) counter electrode and saturated calomel reference electrode (SCE) were applied. Differential pulse voltammetry (DPV) and amperometry were performed with a computer-based Gamry VFP600 multichannel potentiostat. DPV was used to measure the basal NO and ONOO^− concentrations, and amperometry was used to measure changes in NO and ONOO^− concentrations from its basal level with time. The DPV current at the peak potential characteristic for NO oxidation (0.65 V) and ONOO^− reduction (−0.45 V) was directly proportional to the local concentrations of these compounds in the immediate vicinity of the sensor. Linear calibration curves (current vs. concentration) were constructed for each sensor from 10 nM to 3 μM before and after measurements with aliquots of NO and ONOO^− standard solutions, respectively. The detection limit of the sensors was 1.0 nM.
# The quantification of each analyte (concentration in nM) was performed using a maximum current from amperograms and standard calibration curves. A reproducibility of measurements with nanosensors is relatively high (between 5-12%). […] The sensors were slowly raised 5±2 μm from the surface of a single endothelial cell. The eNOS agonist, calcium ionophore A23187 (CaI) as well as the different drugs were then added to the surrounding media at the cell surface with a nanoinjector that was also positioned by a computer controlled-micromanipulator.
# This example describes the genotype-specific response of the three major eNOS variants to 1 μM and 5 μM concentrations of LA-419. The three major genetic polymorphisms studied were the Glu298Asp variant (E298D or 894G→T) in exon 7 of […], the −786T→C variant in the promoter region, and the intron 4 polymorphism (VNTR). All of these variants have possible effects on the cardiovascular system and endothelial dysfunction. For this study, human umbilical vein endothelial cells (HUVECs) from 50 donors between 18 and 32 years of age were used.
# For the analysis several analysis techniques were employed. First, the effect of genotype on NO and ONOO^− release was explored within the different concentrations of LA-419 (control, 1 μM, 5 μM), calculated as the average peak release (nmols/L) of NO, ONOO^−, and NO/ONOO^−. The effect of genotype on the net increase in NO, ONOO^−, and NO/ONOO^− for LA-419 (1 μM and 5 μM) as compared to control was also measured. In addition, an analysis was done on the effect of genotype on the % change in NO, ONOO^−, and NO/ONOO^− production for LA-419 (1 μM and 5 μM), calculated as:
# % Change=[(avg. LA-419−avg. control)/(avg. control)]*100
# Finally, an evaluation was undertaken concerning the effect of genotype on the production of NO, ONOO^−, and NO/ONOO^− as the fold difference of control for LA-419 (1 μM and 5 μM), calculated as:
# Fold Difference=(avg. LA-419)/(avg. control)
# Within each calculation technique the results were compared for statistical significance using a non-parametric ANOVA Kruskal-Wallace test or a non-parametric Mann-Whitney U test. Statistical significance was set at a p-value <0.05 in a two-tailed distribution. […]
# [1] = (LA-419 1 μM)/(control), T-786C T/C & C/C, n=27
# [2] = (LA-419 1 μM)/(control), T-786C T/C, n=23
# [3] = (LA-419 1 μM)/(control), T-786C T/T & T/C, n=45
# [4] = (LA-419 1 μM)/(control), T-786C T/T, n=22
# [5] = (LA-419 5 μM)/(control), Combination of all G894T + T-786C genotypes but G/G + T/T, n=31
# [6] = (LA-419 5 μM)/(control), Combination of all G894T + T-786C genotypes but T/T + C/C, n=46
# [7] = (LA-419 5 μM)/(control), G894T + T-786C G/G + T/C, n=8
# [8] = (LA-419 5 μM)/(control), G894T + T-786C G/G + T/T, n=18
# [9] = (LA-419 5 μM)/(control), G894T + T-786C G/T + C/C, n=1
# [10] = (LA-419 5 μM)/(control), G894T + T-786C G/T + T/C, n=13
# [11] = (LA-419 5 μM)/(control), G894T + T-786C G/T + T/T, n=4
# [12] = (LA-419 5 μM)/(control), G894T + T-786C T/T + C/C, n=1
# [13] = (LA-419 5 μM)/(control), G894T + T-786C T/T + C/C, n=3
# [14] = (LA-419 5 μM)/(control), G894T + T-786C T/T + T/C, n=2
# [15] = (LA-419 5 μM)/(control), G894T G/G & G/T, n=44
# [16] = (LA-419 5 μM)/(control), G894T G/G, n=26
# [17] = (LA-419 5 μM)/(control), G894T G/T & T/T, n=23
# [18] = (LA-419 5 μM)/(control), G894T G/T, n=18
# [19] = (LA-419 5 μM)/(control), G894T T/T, n=5
# [20] = (LA-419 5 μM)/(control), Intron 4 a/a, n=1
# [21] = (LA-419 5 μM)/(control), Intron 4 a/a, n=3
# [22] = (LA-419 5 μM)/(control), Intron 4 b/a, a/a, c/c, n=14
# [23] = (LA-419 5 μM)/(control), Intron 4 b/a, n=10
# [24] = (LA-419 5 μM)/(control), Intron 4 b/b, b/a, c/c, n=42
# [25] = (LA-419 5 μM)/(control), Intron 4 b/b, n=31
# [26] = (LA-419 5 μM)/(control), Intron 4 c/c, n=1
# [27] = (LA-419 5 μM)/(control), T-786C C/C, n=1
compound,measurement,setting,value
"CC(=O)SC1COC2C(O[N+](=O)[O-])COC12 (stereo not drawn) [LA-419, S-(6-Nitro-oxi-hexahydro-furo[3,2-b]furan-3-1-il)thioacetate]",Fold difference ONOO− (mean ± sd),"(LA-419 1 μM)/(control), T-786C C/C, n=4",1.11 (0.44)
same,Fold difference NO (mean ± sd),[1],1.15 (0.28)
same,Fold difference NO/ONOO− (mean ± sd),[1],1.45 (0.75)
same,Fold difference ONOO− (mean ± sd),[1],0.91 (0.31)
same,Fold difference NO (mean ± sd),[2],1.18 (0.30)
same,Fold difference NO/ONOO− (mean ± sd),[2],1.53 (0.78)
same,Fold difference ONOO− (mean ± sd),[2],0.88 (0.28)
same,Fold difference NO (mean ± sd),[3],1.14 (0.25)
same,Fold difference NO/ONOO− (mean ± sd),[3],1.39 (0.67)
same,Fold difference ONOO− (mean ± sd),[3],0.91 (0.25)
same,Fold difference NO (mean ± sd),[4],1.09 (0.18)
same,Fold difference NO/ONOO− (mean ± sd),[4],1.25 (0.52)
same,Fold difference ONOO− (mean ± sd),[4],0.95 (0.22)
same,Fold difference NO (mean ± sd),[5],1.13 (0.06)
same,Fold difference NO/ONOO− (mean ± sd),[5],1.40 (0.14)
same,Fold difference ONOO− (mean ± sd),[5],0.81 (0.07)
same,Fold difference NO (mean ± sd),[6],1.14 (0.06)
same,Fold difference NO/ONOO− (mean ± sd),[6],1.44 (0.16)
same,Fold difference ONOO− (mean ± sd),[6],0.81 (0.07)
same,Fold difference NO (mean ± sd),[7],1.14 (0.07)
same,Fold difference NO/ONOO− (mean ± sd),[7],1.44 (0.18)
same,Fold difference ONOO− (mean ± sd),[7],0.80 (0.07)
same,Fold difference NO (mean ± sd),[8],1.17 (0.06)
same,Fold difference NO/ONOO− (mean ± sd),[8],1.50 (0.18)
same,Fold difference ONOO− (mean ± sd),[8],0.79 (0.08) and 0.79 (0.06)
same,Fold difference NO (mean ± sd),[9],1.12 (0)
same,Fold difference NO/ONOO− (mean ± sd),[9],1.32 (0)
same,Fold difference ONOO− (mean ± sd),[9],0.85 (0)
same,Fold difference NO (mean ± sd),[10],1.13 (0.07)
same,Fold difference NO/ONOO− (mean ± sd),[10],1.37 (0.11)
same,Fold difference ONOO− (mean ± sd),[10],0.83 (0.04)
same,Fold difference NO (mean ± sd),[11],1.14 (0.05)
same,Fold difference NO/ONOO− (mean ± sd),[11],1.47 (0.19)
same,Fold difference ONOO− (mean ± sd),[11],0.79 (0.12)
same,Fold difference NO (mean ± sd),[12],1.08 (0)
same,Fold difference NO/ONOO− (mean ± sd),[12],1.59 (0)
same,Fold difference ONOO− (mean ± sd),[12],0.67 (0)
same,Fold difference NO (mean ± sd),[13],1.12 (0.07)
same,Fold difference NO/ONOO− (mean ± sd),[13],1.46 (0.14)
same,Fold difference ONOO− (mean ± sd),[13],0.77 (0.08)
same,Fold difference NO (mean ± sd),[14],1.12 (0.09)
same,Fold difference NO/ONOO− (mean ± sd),[14],1.29 (0.01)
same,Fold difference ONOO− (mean ± sd),[14],0.87 (0.06)
same,Fold difference NO (mean ± sd),[15],1.15 (0.06)
same,Fold difference NO/ONOO− (mean ± sd),[15],1.44 (0.16)
same,Fold difference ONOO− (mean ± sd),[15],0.80 (0.07)
same,Fold difference NO (mean ± sd),[16],1.16 (0.06)
same,Fold difference NO/ONOO− (mean ± sd),[16],1.48 (0.18)
same,Fold difference ONOO− (mean ± sd),[16],0.79 (0.07)
same,Fold difference NO (mean ± sd),[17],1.13 (0.06)
same,Fold difference NO/ONOO− (mean ± sd),[17],1.39 (0.13)
same,Fold difference ONOO− (mean ± sd),[17],0.82 (0.07)
same,Fold difference NO (mean ± sd),[18],1.13 (0.06)
same,Fold difference NO/ONOO− (mean ± sd),[18],1.39 (0.13)
same,Fold difference ONOO− (mean ± sd),[18],0.82 (0.06)
same,Fold difference NO (mean ± sd),[19],1.12 (0.07)
same,Fold difference NO/ONOO− (mean ± sd),[19],1.39 (0.13)
same,Fold difference ONOO− (mean ± sd),[19],0.81 (0.08)
same,Fold difference NO (mean ± sd),[20],1.17 (0)
same,Fold difference NO/ONOO− (mean ± sd),[20],1.39 (0)
same,Fold difference ONOO− (mean ± sd),[20],0.85 (0)
same,Fold difference NO (mean ± sd),[21],1.14 (0.04)
same,Fold difference NO/ONOO− (mean ± sd),[21],1.37 (0.04)
same,Fold difference ONOO− (mean ± sd),[21],0.83 (0.03)
same,Fold difference NO (mean ± sd),[22],1.16 (0.06)
same,Fold difference NO/ONOO− (mean ± sd),[22],1.44 (0.13)
same,Fold difference ONOO− (mean ± sd),[22],0.81 (0.05)
same,Fold difference NO (mean ± sd),[23],1.17 (0.07)
same,Fold difference NO/ONOO− (mean ± sd),[23],1.46 (0.14)
same,Fold difference ONOO− (mean ± sd),[23],0.80 (0.06)
same,Fold difference NO (mean ± sd),[24],1.14 (0.07)
same,Fold difference NO/ONOO− (mean ± sd),[24],1.43 (0.17)
same,Fold difference ONOO− (mean ± sd),[24],0.81 (0.07)
same,Fold difference NO (mean ± sd),[25],1.14 (0.07)
same,Fold difference NO/ONOO− (mean ± sd),[25],1.42 (0.18)
same,Fold difference ONOO− (mean ± sd),[25],0.81 (0.08)
same,Fold difference NO (mean ± sd),[26],1.17 (0)
same,Fold difference NO/ONOO− (mean ± sd),[26],1.53 (0)
same,Fold difference ONOO− (mean ± sd),[26],0.77 (0)
same,Fold difference NO (mean ± sd),[27],1.08 (0)
same,Fold difference NO/ONOO− (mean ± sd),[27],1.59 (0)
same,Fold difference ONOO− (mean ± sd),[27],0.67 (0)
